Reference: patent US9951060B2, “2-acylaminothiazole derivative or salt thereof” (ASTELLAS PHARMA INC., priority 2014, dated 2018)
Read-outs that look alike come from different tables or passages of the source.

Assays:
[1] = biological target: T1, human c-Mpl-introduced Ba/F3 cell (Homo sapiens, UniProt P40238); assay: Test Example 2: human c-Mpl-introduced Ba/F3 cell proliferative activity; format: cell-based; settings: concentration exhibiting 30% proliferation; 100% = positive control (Example 315 of Patent Document 1) at 1 μM
T1 construct: expressed in transfected cells
T1 sequence (P40238 26-635): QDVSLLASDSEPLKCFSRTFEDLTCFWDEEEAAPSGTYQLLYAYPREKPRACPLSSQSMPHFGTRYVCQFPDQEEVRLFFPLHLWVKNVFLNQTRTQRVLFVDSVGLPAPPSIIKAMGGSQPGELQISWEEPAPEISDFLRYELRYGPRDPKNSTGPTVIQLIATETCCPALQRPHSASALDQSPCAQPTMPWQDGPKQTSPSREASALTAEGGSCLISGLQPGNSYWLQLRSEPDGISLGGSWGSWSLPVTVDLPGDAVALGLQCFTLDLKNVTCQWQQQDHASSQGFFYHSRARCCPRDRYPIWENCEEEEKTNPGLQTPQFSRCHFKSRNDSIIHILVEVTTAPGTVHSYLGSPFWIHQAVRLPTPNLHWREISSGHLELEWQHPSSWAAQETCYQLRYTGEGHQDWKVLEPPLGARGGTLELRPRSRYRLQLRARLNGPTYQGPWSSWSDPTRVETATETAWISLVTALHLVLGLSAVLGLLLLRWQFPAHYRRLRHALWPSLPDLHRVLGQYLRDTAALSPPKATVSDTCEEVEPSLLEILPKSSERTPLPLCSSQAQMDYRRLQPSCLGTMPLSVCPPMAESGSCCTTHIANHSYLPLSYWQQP
Protocol: Test Example 2: Evaluation of Human c-Mpl-Introduced Ba/F3 Cell Proliferative Activity
The human c-Mpl-introduced Ba/F3 cell proliferation action was measured by the following method.
As a positive control, 1-(5-{[4-(4-chlorothiophen-2-yl)-5-{[(2R)-2-methylpyrrolidin-1-yl]methyl}-1,3-thiazol-2-yl]carbamoyl}-3-fluoropyridin-2-yl)piperidine-4-carboxylic acid hydrochloride disclosed as Example 315 in Patent Document 1, represented by the formula (A1) above, was used. Further, it is known that the compound has a good human c-Mpl-introduced Ba/F3 cell proliferative activity as disclosed in Table 1 in Patent Document 1.
a) Construction of Vector Expressing Human c-Mpl Receptor
A human c-Mpl receptor gene (GenBank Accession No.: M90102.1) was transfected into an expression vector pEF-BOS (Nucleic Acids Research, 18: pp 5322 (1990)).
b) Construction of Cell Stably Expressing Human c-Mpl Receptor
A vector expressing a human c-Mpl receptor was introduced into a Ba/F3 cell (RIKEN BRC: RCB0805). For the introduction, an electroporation method was used. pEF-BOS-c-mpl (10 μg), pSV2bsr (1 μg, Kaken Pharmaceutical Co., Ltd.) and 1×10^7 of Ba/F3 cells were put into cuvettes with a gap width of 0.4 cm and electroporated under a condition of 1.5 kV (25 μF) in a Gene Pulser (registered trademark) (BioRad). The cells were incubated in an RPMI-1640 medium supplemented with a 0.5% WEHI conditioned medium (BD Biosciences) and 10% fetal bovine serum for 3 days, and thereafter, and the cells were incubated for 30 days in an RPMI-1640 medium, to which 10 μg/mL blasticidin had been further added, thereby acquiring a drug-resistant clone.
c) Measurement of Cell Proliferative Activity
The cells obtained in b) above were dispensed into an RPMI-1640 medium supplemented with a 0.5% WEHI conditioned medium and 10% fetal bovine serum, and used. The day before the experiment, the test substances (final concentration of 100 nM to 10 μM) which had been dissolved in a medium for assay (an RPMI-1640 medium supplemented with 10% fetal bovine serum) were added to a 384-well plate (Model No. 781185, Greiner bio-one). The cells after the medium had been replaced with the medium for assay were dispensed to a 384-well plate to which the test substance had been added, to 1×10^4 cells/well, and incubated overnight at 37° C. and 5% CO2. On the experiment day, a solution of a Cell counting kit (Dojindo Laboratories) was added to each well of the 384-well plate, and the cells were incubated for about 5 hours at 37° C. and 5% CO2. Thereafter, the absorbance (an absorbance wavelength of 450 nm) of each well was measured using Safire^2 (registered trademark) (TECAN), and used as an index for the number of cells. Further, as a negative control, a well to which the test substances had not been added was prepared.
By taking the absorbance of the well to which the test substance had been not added as 0% and taking the absorbance in a case where the positive control had been added to a final concentration of 1 μM as 100%, a cell proliferation rate (%) was calculated from the absorbance of the well to which the test substance had been added.

[2] = biological target: T2, human muscarinic M3 receptor (Homo sapiens, UniProt P20309); assay: Test Example 1: muscarinic M3 receptor positive allosteric modulator activity (shift of carbachol concentration-response curve, intracellular Ca2+, FLIPR); settings: carbachol EC50 without / with test substance, CHO-K1 cells expressing human M3
T2 sequence (P20309 whole entry): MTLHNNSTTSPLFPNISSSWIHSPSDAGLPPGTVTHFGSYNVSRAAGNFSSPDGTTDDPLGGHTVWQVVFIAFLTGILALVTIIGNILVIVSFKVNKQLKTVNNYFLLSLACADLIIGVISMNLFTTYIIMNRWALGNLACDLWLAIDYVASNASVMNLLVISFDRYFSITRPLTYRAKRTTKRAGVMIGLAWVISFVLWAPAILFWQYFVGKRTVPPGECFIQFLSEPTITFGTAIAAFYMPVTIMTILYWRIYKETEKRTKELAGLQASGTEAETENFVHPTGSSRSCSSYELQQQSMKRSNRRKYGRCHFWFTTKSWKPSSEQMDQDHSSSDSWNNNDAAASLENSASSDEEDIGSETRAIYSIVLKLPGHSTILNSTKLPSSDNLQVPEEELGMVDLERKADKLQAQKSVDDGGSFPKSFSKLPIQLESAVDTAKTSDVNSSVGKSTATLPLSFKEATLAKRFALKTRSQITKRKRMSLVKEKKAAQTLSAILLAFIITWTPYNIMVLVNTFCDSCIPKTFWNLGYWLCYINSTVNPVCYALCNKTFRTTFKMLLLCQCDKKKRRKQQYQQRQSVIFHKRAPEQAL

[3] = biological target: T2, human muscarinic M3 receptor
[4] = biological target: T1, human c-Mpl-introduced Ba/F3 cell; settings: disclosed in Table 1 of Patent Document 1 (WO 2005/007651); cited from earlier work

| SMILES | human c-Mpl-introduced Ba/F3 cell proliferative activity EC30 [1] [µM] | muscarinic M3 receptor-positive allosteric modulator activity, 1 μM (-fold shift) ([2]; test substance 1 μM) | muscarinic M3 receptor-positive allosteric modulator activity, 10 μM (-fold shift) ([2]; test substance 10 μM) | muscarinic M3 receptor-positive allosteric modulator activity, 1 μM (-fold shift) [3] | muscarinic M3 receptor-positive allosteric modulator activity, 10 μM (-fold shift) [3] | EC30 value of c-Mpl-introduced Ba/F3 cell proliferation action [4] [µM] |
| --- | --- | --- | --- | --- | --- | --- |
| Cc1cc(-c2nc(NC(=O)c3cnc(N4CCN(CCC(=O)[O-])CC4)cn3)sc2CN2CCCC[C@H]2C)cc(C(F)(F)F)c1.[Na+] [Example 4, sodium 3-(4-{5-[(5-{[(2R)-2-methylpiperidin-1-yl]methyl}-4-[3-methyl-5-(trifluoromethyl)phenyl]-1,3-thiazol-2-yl)carbamoyl]pyrazin-2-yl}piperazin-1-yl)propanoate] | >3 | 25 -fold shift | 200 -fold shift | – | – | – |
| CC(C)CN(C)Cc1sc(NC(=O)c2cnc(N3CCN(CCC(=O)O)CC3)cn2)nc1-c1cc(F)cc(C(F)(F)F)c1 [Example 107] | >10 | – | – | 73 -fold shift | 318 -fold shift | – |
| CN(Cc1sc(NC(=O)c2cnc(N3CCN(CCC(=O)O)CC3)cn2)nc1-c1cc(F)cc(C(F)(F)F)c1)CC1CC1 [Example 108] | >10 | – | – | 56 -fold shift | 169 -fold shift | – |
| C[C@@H]1CC[C@@H](C)N1Cc1sc(NC(=O)c2cnc(N3CCN(CCC(=O)O)CC3)cn2)nc1-c1cc(C(F)(F)F)cs1 [Example 111] | 5 | – | – | 203 -fold shift | 627 -fold shift | – |
| CCN(CC)Cc1sc(NC(=O)c2cnc(N3CCN(CC(=O)O)C[C@H]3C)cn2)nc1-c1cc(F)cc(C(F)(F)F)c1 [Example 118] | >10 | – | – | 57 -fold shift | 167 -fold shift | – |
| C[C@@H]1CC[C@@H](C)N1Cc1sc(NC(=O)c2cnc(N3CCN(CCC(=O)O)[C@@H](C)C3)cn2)nc1-c1cc(Cl)cs1 [Example 126] | >10 | – | – | 79 -fold shift | 318 -fold shift | – |
| C[C@H]1CN(c2cnc(C(=O)Nc3nc(-c4cc(Cl)cs4)c(CN(C)CC4CC4)s3)cn2)CCN1CCC(=O)O [Example 128] | 8 | – | – | 73 -fold shift | 192 -fold shift | – |
| C[C@@H]1CN(c2cnc(C(=O)Nc3nc(-c4cc(Cl)cs4)c(CN(C)CC4CC4)s3)cn2)CCN1CCC(=O)O [Example 130] | >10 | – | – | 95 -fold shift | 151 -fold shift | – |
| C[C@@H]1CCCN1Cc1sc(NC(=O)c2cnc(N3CCN(CCC(=O)O)CC3)cn2)nc1-c1cc2ccccc2s1 [Example 132] | >10 | – | – | 15 -fold shift | 41 -fold shift | – |
| C[C@@H]1CCCN1Cc1sc(NC(=O)c2cnc(N3CCC(C(=O)O)CC3)c(F)c2)nc1-c1cc(Cl)cs1.Cl [Example 315, 1-(5-{[4-(4-chlorothiophen-2-yl)-5-{[(2R)-2-methylpyrrolidin-1-yl]methyl}-1,3-thiazol-2-yl]carbamoyl}-3-fluoropyridin-2-yl)piperidine-4-carboxylic acid hydrochloride] | – | – | – | – | – | 0.0032 |
